Experimental data: US20090054451A1, “Use of Piperidine Derivatives as Agonists of Chemokine Receptor Activity” (Euroscreen S.A., priority 2007, published 2009)
Like-named read-outs stand apart in the source and are kept apart here.

Experiments:
[1] = test system: recombinant and non-replicative HIV virus; assay: Inhibitory effect on HIV infection to MAGI-CCR5 cells (luciferase reporter virus); assay type: cell-based
Procedure: The inhibitory activity of the compounds of the invention on HIV infection is measured on the human MAGI R5 recombinant cell line coexpressing the human CCR5 receptor and CD4 at their extracellular membrane. MAGI R5 cells are plated in black view plates at 10,000 cells/well and incubated with the appropriate concentrations of the compounds of the invention during 1 hour. This is followed by a 24 hours infection period with the recombinant and non-replicative HIV virus coding for the firefly luciferase (Bona et al., 2006, Antimicrob. Agents Chemother. 50: 3407-3417). The inhibitory effect of the tested compound on virus entry in MAGI R5 cells is measured by a reduction of luciferase signal (TopCount-NXT reader (Packard) and detection luciferase kit: steadylite HTS assay kit (Perkin Elmer)) in the presence of the compound of the invention relative to the maximum signal obtained from cells infected with the virus without any added compound. The results of the tested compounds are reported as the concentration of compound required to inhibit 50% (IC50) of the maximum luciferase signal.

CCR5 receptor [2] = molecular target: T1, CCR5 receptor (Homo sapiens, UniProt P51681); assay: 125I-MIP-1β binding competition assay; design: expressed in transfected cells; host or cells: membranes of recombinant Chinese hamster ovary (CHO) cells; settings: membranes of CHO cells expressing human CCR5; 0.05 nM 125I-MIP-1β
Procedure: The ability of the compounds of the invention to inhibit the binding of MIP-1β was assessed by an in vitro radioligand binding assay. Membranes were prepared from Chinese hamster ovary recombinant cells which express the human CCR5 receptor. The membranes were incubated with 0.05 nM ^125I-MIP-1β in a HEPES 25 mM/CaCl2 5 mM/MgCl2 1 mM buffer and various concentrations of the compounds of the invention. The amount of iodinated MIP-1β bound to the receptor was determined after filtration by the quantification of membrane associated radioactivity using the TopCount-NXT reader (Packard). Competition curves were obtained for compounds of the invention and the concentration of compound which displaced 50% of bound radioligand (IC50) was calculated

CCR5 receptor [3] = molecular target: T1, CCR5 receptor; assay: Aequorin-based calcium flux assay, agonist mode; assay type: cell-based; design: expressed in transfected cells; host or cells: Chinese hamster ovary (CHO) cells coexpressing apoaequorin and Gα16
Procedure: (§1) Briefly, Chinese hamster ovary cells expressing the CCR5 receptor are transfected to coexpress apoaequorin and Gα16. Cells are incubated with 5 μM Coelenterazine H (Promega) overnight at room temperature, and resuspended at a concentration of 0.1×10^6 cells/ml. Cells are then mixed with test agonist or antagonist compounds and light emission by the aequorin is recorded with a luminometer (FDSS 6000-Hamamatsu) for 30 sec. Results are expressed as Relative Light Units (RLU). Controls include cells not expressing CCR5 in order to exclude possible non-specific effects of the test compound.
An agonist response is defined as an increase of light emission by aequorin corresponding to 10% or more of the light emitted by a reference sample of cells expressing CCR5 and treated with a the reference agonist ligand MIP-1β.

CCR5 receptor [4] = molecular target: T1, CCR5 receptor; assay: Aequorin-based calcium flux assay, antagonist mode (against reference agonist MIP-1β); assay type: cell-based; design: expressed in transfected cells; host or cells: Chinese hamster ovary (CHO) cells coexpressing apoaequorin and Gα16; settings: CHO cells expressing CCR5, vs reference agonist MIP-1β; for IC50: read-out: Aequorin/Ca++ Antagonist assay IC50; as to all read-outs here: key: Inactive means >30000 nm
Procedure: as §1
An antagonist response is defined as a decrease of light emission by aequorin of 10% or more in a sample of cells expressing CCR5 stimulated by a reference agonist ligand MIP-1β and treated with the compound of the invention, relative to a sample of cells expressing CCR5 but only treated with the reference agonist ligand MIP-1β.

[5] = Human immunodeficiency virus 1, MAGI, read-out: IC50 (HIV infection of MAGI R5 cells), range over the listed compounds
[6] = Human immunodeficiency virus 1, MAGI-CCR5, 24 h, read-out: HIV-Infection assay IC50
[7] = CHO cells expressing CCR5, apoaequorin and Gα16, read-out: Aequorin/Ca++ assay EC50
[8] = CHO cells expressing CCR5, agonistic mode of action, read-out: Aequorin/Ca++ Agonist assay EC50
[9] = CHO cells expressing CCR5, agonistic mode of action

T1 sequence (P51681 whole entry): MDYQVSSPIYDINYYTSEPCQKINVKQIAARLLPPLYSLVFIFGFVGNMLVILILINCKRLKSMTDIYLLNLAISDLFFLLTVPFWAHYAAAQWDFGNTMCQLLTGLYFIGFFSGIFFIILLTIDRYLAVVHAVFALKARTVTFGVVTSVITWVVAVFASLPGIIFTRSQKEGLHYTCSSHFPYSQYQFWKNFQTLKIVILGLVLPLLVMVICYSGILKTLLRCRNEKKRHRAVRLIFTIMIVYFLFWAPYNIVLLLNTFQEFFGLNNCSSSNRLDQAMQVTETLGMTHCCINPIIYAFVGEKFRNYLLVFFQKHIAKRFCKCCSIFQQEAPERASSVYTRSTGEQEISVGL

Row | Aequorin/Ca++ Antagonist assay IC50 (CCR5 receptor [4]) | EC50 (CCR5 receptor [3]; [8]) [nM] | Aequorin/Ca++ Agonist assay EC50 (CCR5 receptor [3]; [9]) | IC50 (CCR5 receptor [4]) [nM] | Structure (SMILES) | IC50 [1, 5] [nM] | IC50 [1, 6] [nM] | IC50 (CCR5 receptor [2]) [nM] | EC50 (CCR5 receptor [3]; [7]) [nM]
1 | – | – | – | – | CS(=O)(=O)c1ccc(CC(=O)NC2CCN(CCC(c3ccccc3)c3ccccc3)CC2)cc1 [Compound 2] | 25.6 to 2500 | 345 | 6.61 | 33.2
2 | – | – | – | – | COc1ccc(CC(=O)NC2CCN(CCC(c3ccccc3)c3ccccc3)CC2)cc1 [Compound 3] | 25.6 to 2500 | 871 | 14.8 | 27.9
3 | – | – | – | – | O=C(Cc1ccc(OC(F)(F)F)cc1)NC1CCN(CCC(c2ccccc2)c2ccccc2)CC1 [Compound 5] | 25.6 to 2500 | 425 | 23.4 | 145
4 | – | – | – | – | O=C(Cc1ccccc1)NC1CCN(CCC(c2ccccc2)c2ccccc2)CC1 [Compound 7] | 25.6 to 2500 | 1420 | 26.7 | 43.2
5 | – | – | – | – | N#Cc1ccc(CC(=O)NC2CCN(CCC(c3ccccc3)c3ccccc3)CC2)cc1 [Compound 24] | 25.6 to 2500 | 384 | 3.25 | 104
6 | – | – | – | – | O=C(Cc1c[nH]c2ccccc12)NC1CCN(CCC(c2ccccc2)c2ccccc2)CC1 [Compound 25] | 25.6 to 2500 | 1130 | 67.5 | 90.8
7 | – | – | – | – | O=C(CC1CCCCC1)NC1CCN(CCC(c2ccccc2)c2ccccc2)CC1 [Compound 28] | – | 2540 | 158 | 620
8 | Inactive | 470 | – | – | O=C(CN1Cc2ccccc2C1=O)NC1CCN(CCC(c2ccccc2)c2ccccc2)CC1 [Compound 31] | – | – | – | –
9 | Inactive | 4250 | – | – | O=C(NC1CCN(CCC(c2ccccc2)c2ccccc2)CC1)C(c1ccccc1)N1Cc2ccccc2C1=O (centres unmarked) [Compound 37] | – | – | – | –
10 | – | – | Inactive | 1230 | CN(C(=O)C(c1ccccc1)N1Cc2ccccc2C1=O)C1CCN(CCC(c2ccccc2)c2ccccc2)CC1 (centres unmarked) [Compound 62] | – | – | – | –
11 | – | – | Inactive | 1430 | CN(C(=O)CN1Cc2ccccc2C1=O)C1CCN(CCC(c2ccccc2)c2ccccc2)CC1 [Compound 63] | – | – | – | –
12 | – | – | – | – | CC(CC(c1ccccc1)c1ccccc1)N1CCC(NC(=O)Cc2ccc(S(C)(=O)=O)cc2)CC1 (centres unmarked) [Compound 64] | 25.6 to 2500 | 25.6 | 0.14 | 83.4
13 | – | – | – | – | CC(CC(c1ccccc1)c1ccccc1)N1CCC(NC(=O)Cc2ccc(C#N)cc2)CC1 (centres unmarked) [Compound 65] | 25.6 to 2500 | 71.7 | 0.64 | 117
14 | – | – | – | – | C[C@H](CN(c1cccc(F)c1)S(=O)(=O)Cc1ccccc1)N1CCC(NC(=O)Cc2ccccc2F)CC1 [Compound 80] | – | 27 | 0.8 | 31.3
15 | – | – | – | – | C[C@H](CN(c1cccc(F)c1)S(=O)(=O)Cc1ccccc1)N1CCC(NC(=O)Cc2ccc(F)cc2F)CC1 [Compound 81] | – | 14.6 | 0.2 | 38.1
16 | – | – | – | – | C[C@H](CN(c1cccc(F)c1)S(=O)(=O)Cc1ccccc1)N1CCC(NC(=O)Cc2ccc(C(F)(F)F)cc2)CC1 [Compound 90] | – | 5.3 | 0.7 | 180
17 | – | – | – | – | C[C@H](CN(c1ccccc1)S(=O)(=O)Cc1ccccc1)N1CCC(NC(=O)Cc2ccc(C#N)cc2)CC1 [Compound 93] | – | 1.9 | 0.5 | 50.8
18 | – | – | – | – | C[C@H](CN(c1cccc(F)c1)S(=O)(=O)Cc1ccccc1)N1CCC(NC(=O)Cc2ccc(F)cc2)CC1 [Compound 97] | – | 3 | 0.2 | 94.4
19 | – | – | – | – | C[C@H](CN(c1ccccc1)S(=O)(=O)Cc1ccccc1)N1CCC(NC(=O)Cc2ccc(F)cc2F)CC1 [Compound 113] | – | 4.6 | – | 29.4

Row | Structure (SMILES) | Aequorin/Ca++ Antagonist assay IC50 (CCR5 receptor [4]) | EC50 (CCR5 receptor [3]; [8]) [nM] | Aequorin/Ca++ Agonist assay EC50 (CCR5 receptor [3]; [9]) | IC50 (CCR5 receptor [4]) [nM] | IC50 [1, 5] [nM] | IC50 [1, 6] [nM] | IC50 (CCR5 receptor [2]) [nM] | EC50 (CCR5 receptor [3]; [7]) [nM]
20 | O=C(Cc1ccc(Cl)cc1)NC1CCN(CCC(c2ccccc2)c2ccccc2)CC1 [Compound 1] | Inactive | – | – | – | 25.6 to 2500 | 333 | 9.32 | 58.8
